Source: patent US20220071978A1, “CANCER TREATMENT PHARMACEUTICAL COMPOSITION CONTAINING CDK INHIBITOR” (SUMITOMO DAINIPPON PHARMA CO., LTD., priority 2018, published 2022)

What was measured:
[1] = Body weight in the xenograft mouse test; type: in vivo; conditions: NOD-SCID mice; 3 mg/kg intraperitoneally, three times every two days
Procedure: 2×10^6 […]14 cells were subjected to suspension culture for 4 days using a PrimeSurface® petri dish 90 mm (product code: MS-9090X) in a phenol red free RPMI 1640 medium containing activated carbon-treated 10% fetal bovine serum (csFBS). The cultured cells that were collected, mixed with 350 uL of Matrigel (Corning® Matrigel® Basement Membrane Matrix; catalog number: 356237), and then divided into 3 equal portions were transplanted subcutaneously into three sites on NOD-SCID mice (male, 8 mice, 6 to 8 weeks old) 7 days after castration. After the subcutaneous transplantation, the mice were continuously raised, and an aqueous saline solution of alvocidib hydrochloride (3 mg/kg) was administered intraperitoneally to the mice for a total of three times at an interval of once every two days from the point (day 0) where the volume of tumor formed subcutaneously reached 25 mm^3 or greater and 100 mm^3 or less at one or two of the tumor transplantation sites.

[2] = system: androgen receptor (AR) phosphorylation in AILNCaP15 cell line; test: AR phosphorylation suppression test by immunoblotting; type: cell-based; conditions: 0.25 uM, 1 to 4 days
Procedure: (§3) After the culturing, each of 1×10^6 cells were washed with ice cooled PBS, and then treated with cell lysis buffer containing 8 M of urea, 20 mM of Tris hydrochloride (pH 7.4), 1 mM of EDTA, and protease inhibitor (Nacalai tesque, Cat no. 03969) and phosphatase inhibitor (Nacalai tesque, Cat no. 07575-51)—added 1.0% Triton X. The cell lysate was then subjected to high speed centrifugation (21,500 G) for 20 minutes at 4° C. The total amount of cell protein was quantified using a protein quantification reagent (Thermo Fisher Scientific, Cat no. 23227).

[3] = system: androgen receptor (AR) phosphorylation in AILNCaP14 cell line; test: as above; type: cell-based; conditions: 0.25 uM, 1 to 4 days
Procedure: as §3
As a positive control, JQ1 (Cayman Chemical) was used.

[4] = system: AR nuclear translocation in AILNCaP14 cell line; test: AR nuclear translocation suppression test using immunofluorescent staining; type: cell-based; conditions: 0.25 μM, 4 days, vs DMSO control
Procedure: 1×10^5 cells of the […]14 cell line were seeded on a 48-well plate to which 0.5 mL/well of medium was dispensed. After 3 days of culture under the conditions of 5% CO2 at 37° C., a DMSO solution of alvocidib was diluted with a medium so that the final concentration of alvocidib would be 0.25 μM and added to each well (final volume of 1.0 mL). As a control, alvocidib-free DMSO was similarly diluted and added. After culturing for 4 days, the cells were gently washed once with PBS, and immobilized by allowing 4% paraformaldehyde phosphate buffer to act on the cells for 15 minutes. After washing the cells gently twice with PBS, the cells were incubated for 15 minutes in a 4% PBST solution. The cells were further incubated for 15 minutes in a blocking reagent (DS Pharma Biomedical, Cat no. UK-B80), and the cells were then incubated overnight at 4° C. after adding an anti-AR antibody (Santa Cruz Biotechnology Inc., Cat no. sc-816). After washing the cells gently twice with PBS, the cells were incubated for 45 minutes at room temperature after adding a secondary antibody for immunofluorescent staining (Thermo Fisher Scientific, Cat no A-21206). After washing the cells gently twice with PBS, the cells were incubated for 10 minutes after adding DAPI (Nacalai tesque, Cat no. 11034-56). After washing the cells twice for 10 minutes with 1% PBS, signals were measured with a fluorescence microscope.

[5] = system: AILNCaP15 cell line; test: Cell proliferation suppression test (crystal violet staining); type: cell-based
Procedure: (§1) 5×10^3 cells of the LNCaP cell line, 4×10^4 cells of the AILNCaP14 cell line, and 6×10^4 cells of the AILNCaP15 cell line were each seeded on a 24-well plate to which 1 mL/well of medium was dispensed. […] After culturing each cell line for an additional two weeks, the status of cell proliferation was measured by cell staining (Bommi-Reddy et al. Proc Natl Acad Sci USA. 105: 16484-16489 (2008)) using crystal violet.
(§2) The final concentrations of alvocidib were set to be 0.125, 0.25, 0.5, and 1.0 uM.

[6] = system: AILNCaP14 cell line; test: as above; type: cell-based
Procedure: as §1, §2

[7] = system: AILNCaP14 cell derived subcutaneous xenograft; test: Tumor proliferation suppression test using a subcutaneous xenograft mouse model; type: in vivo; conditions: castrated NOD-SCID mice; 3 mg/kg intraperitoneally, three times every two days; vs saline negative control; p value=0.0497
Procedure: 2×10^6 […] 14 cells were subjected to suspension culture for 4 days using a PrimeSurface® petri dish 90 mm (product code: MS-9090X) in a phenol red free RPMI 1640 medium containing activated carbon-treated 10% fetal bovine serum (csFBS). The cultured cells that were collected, mixed with 350 uL of Matrigel (Corning® Matrigel® Basement Membrane Matrix; catalog number: 356237), and then divided into 3 equal portions were transplanted subcutaneously into three sites on NOD-SCID mice (male, 8 mice, 6 to 8 weeks old) 7 days after castration. […] The tumor volume after three days (day 7) from the third administration was measured, and the ratio of increase in tumor volume was computed in accordance with the following equation. Ratio of increase in tumor volume=tumor volume on day 7/tumor volume on day 0 As a negative control group, the same test was conducted using saline in place of an agent administered solution, and the ratio of increase in tumor volume was computed.

[8] = system: LNCaP cell line; test: Cell proliferation suppression test (crystal violet staining); type: cell-based; conditions: final concentration of 0.625 uM or greater, two weeks culture
Procedure: as §1

[9] = 336 h, two weeks culture, crystal violet
[10] = final concentration of 0.25 uM or greater
[11] = final concentration of 5 uM, compared to LNCaP cell line

Compound | decrease in the body weight of mice [1] | phosphorylation of serine 81 of AR [2] | phosphorylation of serine 210 or serine 213 of AR [2] | phosphorylation of serine 81 of AR [3] | phosphorylation of serine 210 or serine 213 of AR [3] | AR nuclear translocation [4] | IC50 [5, 9] | effect of suppressing cell proliferation [5, 10] | IC50 [6, 9] | effect of suppressing cell proliferation [6, 10] | ratio of increase in tumor volume (day 7/day 0) [7] | suppression of cell proliferation [8] | suppression of cell proliferation [5, 11] | suppression of cell proliferation [6, 11]
CN1CC[C@H](c2c(O)cc(O)c3c(=O)cc(-c4ccccc4Cl)oc23)[C@H](O)C1 [alvocidib, 2-(2-chlorophenyl)-5,7-dihydroxy-8-[(3S,4R)-3-hydroxy-1-methylpiperidin-4-yl]-4H-1-benzopyran-4-one] | not observed | suppressed over time | suppressed over time | suppressed over time | suppressed over time | suppressed | 125 to 250 nM | very potent effect of suppressing cell proliferation | 125 to 250 nM | very potent effect of suppressing cell proliferation | decreased |  |  | 
CNC(=O)c1ccc(N2C(=S)N(c3ccc(C#N)c(C(F)(F)F)c3)C(=O)C2(C)C)cc1F [enzalutamide] |  |  |  |  |  |  |  |  |  |  |  | clear suppression of cell proliferation | significant weaker suppression of cell proliferation | significant weaker suppression of cell proliferation
